Our source for the IC50 values is patent publication US20230391748A1, “BICYCLIC INHIBITORS OF IRAK” (priority 2022, published 2023).

Usually IC50 stands for the concentration that inhibits the measured activity by half.

Assay [1] relates to TNF-α in Human Primary Monocyte-Derived Dendritic Cells. The assay is described as follows: Gardiquimod-Induced TNF-α in Human Primary Monocyte-Derived Dendritic Cells. Format: cell-based. Particulars: Dendritic cell, IFNγ-primed monocyte-derived dendritic cells, 4 μg/ml Gardiquimod, 6 hours, TNF-α ELISA, read-out: TNFα (DC, GARD) (IC50). In outline:
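Monocytes differentiated 7 days with GM-CSF and IL-4, then primed 24 h with 50 ng/ml IFN-γ. Compound added 1 h before 6 h stimulation with 4 μg/ml Gardiquimod, 0.5% DMSO final. Supernatant TNF-α measured by chemiluminescent ELISA; EC50 from curve fitting.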
(In general: An ELISA detects its analyte on a solid surface through an enzyme-linked reagent.)

Assay [2] concerns IL23p19 in THP-1 Cells. The assay can be described thus: LPS Induced IL23p19 in THP-1 Cells (with IFNγ Primed) Assay. Format: cell-based. Conditions: Homo sapiens, THP-1, 18 h, read-out: IL23 (THP, LPS) (IC50, μM). In outline: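 THP-1 cells (50K/well) primed with IFNγ (50 ng/mL) about 18 h, then given compound and stimulated with LPS for 18 h at 37 °C. Secreted IL-23p19 measured by sandwich ELISA with chemiluminescent read-out, giving EC50. Cell Titer Glo used on the remaining cells for toxicity.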

For assay [3], the system named is TNF-α in human PBMCs. The assay can be described thus: R848-induced TNF-α in human PBMCs Assay. Format: cell-based. Particulars: Homo sapiens, PBMC, 4 h, read-out: TNFα (PBMC, R848) (IC50, μM). A digest of the protocol: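 Human PBMCs at 200K/well were pretreated with compound, then R848-stimulated for 4 h at 37 °C, 5% CO2. Supernatant TNF-α quantified by chemiluminescent ELISA; EC50 from curve fitting.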

For assay [4], the target named is IRAK4 (Homo sapiens (Human), UniProt Q9NWZ3). The assay is described as follows: IRAK4 ADP-Glo Assay. Format: biochemical. Particulars: MBP substrate. In outline:
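Human IRAK4 kinase reaction with MBP substrate plus ATP in Tris-HCl/MgCl2/BSA/DTT buffer, pH 7.4, run 60 min at room temperature or 30 min at 30 °C. ADP formed was measured by ADP-Glo luminescence after ATP depletion (40 min) and detection reagent (30 min).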
Background: ADP-Glo first removes unused ATP, then detects ADP through luciferase.

Sequence of IRAK4 (Q9NWZ3 whole entry): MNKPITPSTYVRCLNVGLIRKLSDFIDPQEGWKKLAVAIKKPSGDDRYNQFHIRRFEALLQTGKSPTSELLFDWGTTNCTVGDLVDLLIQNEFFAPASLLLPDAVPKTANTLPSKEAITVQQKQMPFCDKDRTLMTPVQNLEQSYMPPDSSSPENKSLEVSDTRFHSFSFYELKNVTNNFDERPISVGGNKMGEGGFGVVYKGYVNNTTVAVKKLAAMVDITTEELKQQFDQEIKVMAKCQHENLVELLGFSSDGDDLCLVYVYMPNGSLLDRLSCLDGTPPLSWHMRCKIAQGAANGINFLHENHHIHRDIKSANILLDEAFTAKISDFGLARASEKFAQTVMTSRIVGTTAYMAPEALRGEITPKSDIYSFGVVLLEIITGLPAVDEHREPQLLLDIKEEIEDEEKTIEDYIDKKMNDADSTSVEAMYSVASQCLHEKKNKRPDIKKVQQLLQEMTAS

As for `CC(C)Oc1cc2c(OC[C@@H]3CC(F)(F)C(=O)N3)ncc(C#CC3(O)CCNCC3)c2cc1C(N)=O` [Compound I-53, (S)-1-((4,4-difluoro-5-oxopyrrolidin-2-yl)methoxy)-4-((4-hydroxypiperidin-4-yl)ethynyl)-7-isopropoxyisoquinoline-6-carboxamide], the concentration for half-maximal inhibition (IC50) in assay [1] was determined as 14.2 µM; in assay [2], 11 µM; in assay [3] it was 3.06 µM; in assay [4], 0.0063 µM.

As for `CC(C)Oc1cc2c(OC[C@@H]3CC(F)(F)C(=O)N3)ncc(C#CC3CCN(C(=O)OC(C)(C)C)CC3)c2cc1C(N)=O` [Compound I-54, tert-butyl (S)-4-((6-carbamoyl-1-((4,4-difluoro-5-oxopyrrolidin-2-yl)methoxy)-7-isopropoxyisoquinolin-4-yl)ethynyl)piperidine-1-carboxylate], the IC50 in assay [1] is 1.71 µM; in assay [2] it was 2.97 µM; in assay [3] it was 2.75 µM; in assay [4], 0.113 µM.

Consider `CC(C)Oc1cc2c(OC[C@@H]3CC(F)(F)C(=O)N3)ncc(C#CC3CCNCC3)c2cc1C(N)=O` [Compound I-55, (S)-1-((4,4-difluoro-5-oxopyrrolidin-2-yl)methoxy)-7-isopropoxy-4-(piperidin-4-ylethynyl)isoquinoline-6-carboxamide], for which the IC50 stood at 1.22 µM in assay [1], 4 µM in assay [2], 1.2 µM in assay [3] and 0.0035 µM in assay [4].

Consider `CC(C)Oc1cc2c(OC[C@@H]3CC(F)(F)C(=O)N3)ncc(C#CC3CCN(C)CC3)c2cc1C(N)=O` [Compound I-56, (S)-1-((4,4-difluoro-5-oxopyrrolidin-2-yl)methoxy)-7-isopropoxy-4-((1-methylpiperidin-4-yl)ethynyl)isoquinoline-6-carboxamide], for which the IC50 amounted to 0.0249 µM in assay [1], 0.422 µM in assay [2], 0.136 µM in assay [3] and 0.0033 µM in assay [4].

For the compound `CC(C)Oc1cc2c(OC[C@@H]3CC(F)(F)C(=O)N3)ncc(C#CC3(O)CCN(C)CC3)c2cc1C(N)=O` [Compound I-57, (S)-1-((4,4-difluoro-5-oxopyrrolidin-2-yl)methoxy)-4-((4-hydroxy-1-methylpiperidin-4-yl)ethynyl)-7-isopropoxyisoquinoline-6-carboxamide], the IC50 amounted to 0.634 µM in assay [1], 7.39 µM in assay [2], 0.468 µM in assay [3] and 0.0045 µM in assay [4].

In the case of `CCO[C@H]1CC[C@H](C#Cc2cnc(OC[C@@H]3CC(F)(F)C(=O)N3)c3cc(OC(C)C)c(C(N)=O)cc23)CC1` [Compound I-58, 1-(((S)-4,4-difluoro-5-oxopyrrolidin-2-yl)methoxy)-4-(((1r,4S)-4-ethoxycyclohexyl)ethynyl)-7-isopropoxyisoquinoline-6-carboxamide], the IC50 was 0.0225 µM in assay [1], 2960 µM in assay [2], 1.56 µM in assay [3] and 0.729 µM in assay [4].

`CCO[C@H]1CC[C@@H](C#Cc2cnc(OC[C@@H]3CC(F)(F)C(=O)N3)c3cc(OC(C)C)c(C(N)=O)cc23)CC1` [Compound I-59, 1-(((S)-4,4-difluoro-5-oxopyrrolidin-2-yl)methoxy)-4-((cis-4-ethoxycyclohexyl)ethynyl)-7-isopropoxyisoquinoline-6-carboxamide]: the IC50 stood at 0.032 µM in assay [1], 0.0466 µM in assay [2], 0.0472 µM in assay [3] and 0.0039 µM in assay [4].

With `CC(C)Oc1cc2c(OC[C@@H]3CC(F)(F)C(=O)N3)ncc(C#C[C@H]3CC[C@](C)(O)CC3)c2cc1C(N)=O` [Compound I-60, 1-(((S)-4,4-difluoro-5-oxopyrrolidin-2-yl)methoxy)-4-(((1r,4S)-4-hydroxy-4-methylcyclohexyl)ethynyl)-7-isopropoxyisoquinoline-6-carboxamide], the IC50 in assay [1] came out at 0.0213 µM; in assay [2], 0.0246 µM; in assay [3] it was 0.0778 µM; in assay [4], 0.0093 µM.

With `CC(C)Oc1cc2c(OC[C@@H]3CC(F)(F)C(=O)N3)ncc(C#C[C@H]3CC[C@@](C)(O)CC3)c2cc1C(N)=O` [Compound I-61, 1-(((S)-4,4-difluoro-5-oxopyrrolidin-2-yl)methoxy)-4-(((1s,4R)-4-hydroxy-4-methylcyclohexyl)ethynyl)-7-isopropoxyisoquinoline-6-carboxamide], the IC50 came to 0.013 µM in assay [1], 0.102 µM in assay [2], 0.0807 µM in assay [3] and 0.0088 µM in assay [4].

As to `CC(C)Oc1cc2c(OC[C@@H]3CC(F)(F)C(=O)N3)ncc(C#CC3CN(C(=O)OC(C)(C)C)C3)c2cc1C(N)=O` [Compound I-62, tert-butyl (S)-3-((6-carbamoyl-1-((4,4-difluoro-5-oxopyrrolidin-2-yl)methoxy)-7-isopropoxyisoquinolin-4-yl)ethynyl)azetidine-1-carboxylate], the half-maximal inhibitory concentration (IC50) in assay [1] is 0.0021 µM; in assay [2], 0.0219 µM; in assay [3], 0.001 µM; in assay [4], 0.0193 µM.

Take `CC(C)Oc1cc2c(OC[C@@H]3CC(F)(F)C(=O)N3)ncc(C#CC3CNC3)c2cc1C(N)=O` [Compound I-63, (S)-4-(azetidin-3-ylethynyl)-1-((4,4-difluoro-5-oxopyrrolidin-2-yl)methoxy)-7-isopropoxyisoquinoline-6-carboxamide]: the half-inhibitory concentration (IC50) worked out at 0.523 µM in assay [1], 5.9 µM in assay [2], 1.21 µM in assay [3] and 0.0028 µM in assay [4].

For `COC1(OC)CC(C#Cc2cnc(OC[C@@H]3CC(F)(F)C(=O)N3)c3cc(OC(C)C)c(C(N)=O)cc23)C1` [Compound I-65, (S)-1-((4,4-difluoro-5-oxopyrrolidin-2-yl)methoxy)-4-((3,3-dimethoxycyclobutyl)ethynyl)-7-isopropoxyisoquinoline-6-carboxamide], the IC50 in assay [1] was 0.029 µM; in assay [2], 0.0465 µM; in assay [3], 0.0065 µM; in assay [4], 0.0087 µM.

As for `CC(C)Oc1cc2c(OC[C@@H]3CC(F)(F)C(=O)N3)ncc(-c3cnn(C4CC4)c3)c2cc1C(N)=O` [Compound I-67, (S)-4-(1-cyclopropyl-1H-pyrazol-4-yl)-1-((4,4-difluoro-5-oxopyrrolidin-2-yl)methoxy)-7isopropoxyisoquinoline-6-carboxamide], the IC50 in assay [1] is 0.593 µM; in assay [2] it was 0.608 µM; in assay [3] it was 0.0472 µM; in assay [4] it was 0.0063 µM.

`CC(C)Oc1cc2c(OC[C@@H]3CC(F)(F)C(=O)N3)ncc(-c3cnn(C4CCC4)c3)c2cc1C(N)=O` [Compound I-68, (S)-4-(1-cyclobutyl-1H-pyrazol-4-yl)-1-((4,4-difluoro-5-oxopyrrolidin-2-yl)methoxy)-7-isopropoxyisoquinoline-6-carboxamide]: the 50% inhibitory concentration (IC50) worked out at 0.545 µM in assay [1], 0.286 µM in assay [2], 0.406 µM in assay [3] and 0.0095 µM in assay [4].

Take `CC(C)Oc1cc2c(OC[C@@H]3CC(F)(F)C(=O)N3)ncc(-c3cnn(C4CCCC4)c3)c2cc1C(N)=O` [Compound I-69, (S)-4-(1-cyclopentyl-1H-pyrazol-4-yl)-1-((4,4-difluoro-5-oxopyrrolidin-2-yl)methoxy)-7-isopropoxyisoquinoline-6-carboxamide]: the 50% inhibitory concentration (IC50) in assay [1] was 0.0523 µM; in assay [2], 0.391 µM; in assay [3], 0.241 µM; in assay [4], 0.0051 µM.
